Results reported in the supplement of paper PMC10307832.

Experiments:
Assay in all cases: relative viability (nuclei count vs DMSO), 5 days (fraction); higher = more cells survive
[1] = test system: 201T
Summary of the method: (§1)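 Relative viability is defined as nuclei in treated wells over nuclei in vehicle wells. Duplicate plates were run and medians reported. Lung cancer cell lines in 1536-well plates were dosed by pin tool one day after seeding, with one drug or with a fixed anchor-drug dose plus five library-drug doses (not always all listed) in √10 steps, and nuclei were counted after 5 days.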

[2] = test system: LCLC-97TM1
Summary of the method: as §1

[3] = test system: PC-14
Summary of the method: as §1

[4] = test system: NCI-H650
Summary of the method: as §1

[5] = test system: NCI-H1666
Summary of the method: as §1

[6] = test system: H3255
Summary of the method: as §1

[7] = test system: HCC-78
Summary of the method: as §1

[8] = test system: ChaGo-K-1
Summary of the method: as §1

[9] = test system: LC-2-ad
Summary of the method: as §1

[10] = test system: NCI-H2347
Summary of the method: as §1

[11] = test system: NCI-H520
Summary of the method: as §1

[12] = test system: NCI-H2405
Summary of the method: as §1

[13] = test system: NCI-H23
Summary of the method: as §1

[14] = test system: RERF-LC-KJ
Summary of the method: as §1

[15] = test system: NCI-H1915
Summary of the method: as §1

[16] = test system: HCC-827
Summary of the method: as §1

[17] = test system: NCI-H647
Summary of the method: as §1

[18] = test system: COR-L 105
Summary of the method: as §1

[19] = test system: EPLC-272H
Summary of the method: as §1

[20] = test system: NCI-H2126
Summary of the method: as §1

[21] = test system: NCI-H661
Summary of the method: as §1

Compound: CC(=O)O[C@@]12CO[C@@H]1C[C@H](O)[C@@]1(C)C(=O)[C@H](O)C3=C(C)[C@@H](OC(=O)[C@H](O)[C@@H](NC(=O)OC(C)(C)C)c4ccccc4)C[C@@](O)([C@@H](OC(=O)c4ccccc4)[C@H]21)C3(C)C [Docetaxel] + Cc1cc(Nc2cc(N3CCN(C)CC3)nc(Sc3ccc(NC(=O)C4CC4)cc3)n2)n[nH]1 [Tozasertib] (partner 0.1 µM)
- relative viability ([1]; first compound 0.0002 µM): 0.937
- relative viability ([1]; first compound 0.000632 µM): 0.751
- relative viability ([1]; first compound 0.002 µM): 0.581
- relative viability ([1]; first compound 0.006325 µM): 0.453
- relative viability ([1]; first compound 0.02 µM): 0.325
- relative viability ([2]; first compound 0.000632 µM): 0.209
- relative viability ([2]; first compound 0.002 µM): 0.191
- relative viability ([2]; first compound 0.006325 µM): 0.122
- relative viability ([2]; first compound 0.02 µM): 0.13
- relative viability ([3]; first compound 0.0002 µM): 0.534
- relative viability ([3]; first compound 0.000632 µM): 0.489
- relative viability ([3]; first compound 0.002 µM): 0.0877
- relative viability ([3]; first compound 0.006325 µM): 0.0613
- relative viability ([3]; first compound 0.02 µM): 0.0312
- relative viability ([4]; first compound 0.0002 µM): 0.666
- relative viability ([4]; first compound 0.000632 µM): 0.381
- relative viability ([4]; first compound 0.002 µM): 0.25
- relative viability ([4]; first compound 0.006325 µM): 0.25
- relative viability ([4]; first compound 0.02 µM): 0.182
- relative viability ([5]; first compound 0.0002 µM): 0.564
- relative viability ([5]; first compound 0.000632 µM): 0.506
- relative viability ([5]; first compound 0.002 µM): 0.496
- relative viability ([5]; first compound 0.006325 µM): 0.418
- relative viability ([5]; first compound 0.02 µM): 0.31
- relative viability ([6]; first compound 0.0002 µM): 0.83
- relative viability ([6]; first compound 0.000632 µM): 0.507
- relative viability ([6]; first compound 0.002 µM): 0.241
- relative viability ([6]; first compound 0.006325 µM): 0.264
- relative viability ([6]; first compound 0.02 µM): 0.236
- relative viability ([7]; first compound 0.0002 µM): 0.386
- relative viability ([7]; first compound 0.000632 µM): 0.436
- relative viability ([7]; first compound 0.002 µM): 0.278
- relative viability ([7]; first compound 0.006325 µM): 0.344
- relative viability ([7]; first compound 0.02 µM): 0.368
- relative viability ([8]; first compound 0.0002 µM): 0.218
- relative viability ([8]; first compound 0.002 µM): 0.201
- relative viability ([8]; first compound 0.006325 µM): 0.199
- relative viability ([8]; first compound 0.02 µM): 0.185
- relative viability ([9]; first compound 0.0002 µM): 0.487
- relative viability ([9]; first compound 0.000632 µM): 0.395
- relative viability ([9]; first compound 0.002 µM): 0.302
- relative viability ([9]; first compound 0.006325 µM): 0.37
- relative viability ([10]; first compound 0.0002 µM): 0.511
- relative viability ([10]; first compound 0.000632 µM): 0.594
- relative viability ([10]; first compound 0.002 µM): 0.441
- relative viability ([10]; first compound 0.006325 µM): 0.293
- relative viability ([10]; first compound 0.02 µM): 0.268
- relative viability ([11]; first compound 0.0002 µM): 0.418
- relative viability ([11]; first compound 0.000632 µM): 0.468
- relative viability ([11]; first compound 0.002 µM): 0.445
- relative viability ([11]; first compound 0.006325 µM): 0.376
- relative viability ([11]; first compound 0.02 µM): 0.317
- relative viability ([12]; first compound 0.0002 µM): 0.699
- relative viability ([12]; first compound 0.000632 µM): 0.556
- relative viability ([12]; first compound 0.002 µM): 0.461
- relative viability ([12]; first compound 0.006325 µM): 0.361
- relative viability ([12]; first compound 0.02 µM): 0.278
- relative viability ([13]; first compound 0.0002 µM): 0.39
- relative viability ([13]; first compound 0.000632 µM): 0.314
- relative viability ([13]; first compound 0.002 µM): 0.195
- relative viability ([13]; first compound 0.006325 µM): 0.198
- relative viability ([13]; first compound 0.02 µM): 0.166
- relative viability ([14]; first compound 0.0002 µM): 0.525
- relative viability ([14]; first compound 0.000632 µM): 0.403
- relative viability ([14]; first compound 0.002 µM): 0.279
- relative viability ([14]; first compound 0.006325 µM): 0.278
- relative viability ([14]; first compound 0.02 µM): 0.197
- relative viability ([15]; first compound 0.0002 µM): 0.426
- relative viability ([15]; first compound 0.000632 µM): 0.322
- relative viability ([15]; first compound 0.002 µM): 0.247
- relative viability ([15]; first compound 0.006325 µM): 0.201
- relative viability ([15]; first compound 0.02 µM): 0.142
- relative viability ([16]; first compound 0.0002 µM): 0.406
- relative viability ([16]; first compound 0.000632 µM): 0.412
- relative viability ([16]; first compound 0.002 µM): 0.328
- relative viability ([16]; first compound 0.006325 µM): 0.332
- relative viability ([16]; first compound 0.02 µM): 0.295
- relative viability ([17]; first compound 0.0002 µM): 0.258
- relative viability ([17]; first compound 0.000632 µM): 0.339
- relative viability ([17]; first compound 0.002 µM): 0.148
- relative viability ([17]; first compound 0.006325 µM): 0.132
- relative viability ([17]; first compound 0.02 µM): 0.103
- relative viability ([18]; first compound 0.0002 µM): 0.323
- relative viability ([18]; first compound 0.000632 µM): 0.382
- relative viability ([18]; first compound 0.002 µM): 0.36
- relative viability ([18]; first compound 0.006325 µM): 0.384
- relative viability ([18]; first compound 0.02 µM): 0.344
- relative viability ([19]; first compound 0.0002 µM): 0.219
- relative viability ([19]; first compound 0.000632 µM): 0.129
- relative viability ([19]; first compound 0.002 µM): 0.132
- relative viability ([19]; first compound 0.006325 µM): 0.0975
- relative viability ([19]; first compound 0.02 µM): 0.104
- relative viability ([20]; first compound 0.0002 µM): 0.785
- relative viability ([20]; first compound 0.000632 µM): 0.45
- relative viability ([20]; first compound 0.002 µM): 0.359
- relative viability ([20]; first compound 0.006325 µM): 0.354
- relative viability ([20]; first compound 0.02 µM): 0.237
- relative viability ([21]; first compound 0.0002 µM): 0.367
- relative viability ([21]; first compound 0.000632 µM): 0.387
- relative viability ([21]; first compound 0.002 µM): 0.432
- relative viability ([21]; first compound 0.006325 µM): 0.352
- relative viability ([21]; first compound 0.02 µM): 0.4
